Data reported in the Deep4Chem optical property database.
Values belong to the compound of their own block, whether it stands above or below them.

Assay: photoluminescence quantum yield (fraction); solvent given as SMILES

photoluminescence quantum yield (in ClCCl): 0.00065
Compound: COC(=O)C1=C(C(=O)OC)C2(c3ccccc3-c3ccccc32)[C@@H](c2ccc([N+](=O)[O-])cc2)C=C2c3cc(OC)c(OC)cc3CCN21

photoluminescence quantum yield (in CC#N): 0.005 | photoluminescence quantum yield (in ClCCl): 0.012
Compound: CC(=O)Nc1cccc2c1C#Cc1c(cccc1C(=O)N(C)C)OCCCO2

photoluminescence quantum yield (in CCO): 0.79 | photoluminescence quantum yield (in O): 0.6
Compound: O=C([O-])c1ccc(C2=c3cc4c5c(c3Oc3c2cc2c6c3CCCN6CCC2)CCC[N+]=5CCC4)c(C(=O)[O-])c1

photoluminescence quantum yield (in O): 0.011
Compound: [NH3+]c1cc([NH3+])cc(-c2nc3ccccc3s2)c1

photoluminescence quantum yield (in CC#N): 0.09 | photoluminescence quantum yield (in CCCCOCCCC): 0.1 | photoluminescence quantum yield (in CO): 0.07
Compound: CC(=O)Nc1cc2ccc3cccc4ccc(c1)c2c34

Compound: CN(C)c1ccc(C2=Cc3ccc4ccccc4[n+]3[B-](F)(F)O2)cc1
photoluminescence quantum yield (in C1CCOC1): 0.517 | photoluminescence quantum yield (in C1COCCO1): 0.735 | photoluminescence quantum yield (in CC1CCCCC1): 0.862 | photoluminescence quantum yield (in CC#N): 0.296 | photoluminescence quantum yield (in CCOC(C)=O): 0.614 | photoluminescence quantum yield (in CCOCC): 0.747 | photoluminescence quantum yield (in CN(C)C=O): 0.187 | photoluminescence quantum yield (in CO): 0.308 | photoluminescence quantum yield (in COC(C)=O): 0.374 | photoluminescence quantum yield (in ClC(Cl)Cl): 0.86

photoluminescence quantum yield (in ClC(Cl)Cl): 0.057
Compound: CC(C)(C)c1ccc2oc3nc4oc5ccc(N6c7ccccc7Oc7ccccc76)cc5c4cc3c2c1

photoluminescence quantum yield (in CC#N): 0.009
Compound: CN(C)c1ccc(C#Cc2ccc3ccc(=O)oc3c2)cc1

Compound: CCC(=O)c1ccc2cc(N(C)C)ccc2c1
photoluminescence quantum yield (in C1CCOC1): 0.83 | photoluminescence quantum yield (in C1COCCO1): 0.61 | photoluminescence quantum yield (in CC#N): 0.94 | photoluminescence quantum yield (in CCCCCC): 0.02 | photoluminescence quantum yield (in CCCCCCC): 0.019 | photoluminescence quantum yield (in CCCCCCCCO): 0.385 | photoluminescence quantum yield (in CCO): 0.95 | photoluminescence quantum yield (in CN(C)C=O): 0.92 | photoluminescence quantum yield (in CO): 0.71 | photoluminescence quantum yield (in CS(C)=O): 0.75 | photoluminescence quantum yield (in Cc1ccccc1): 0.52 | photoluminescence quantum yield (in ClC(Cl)Cl): 0.88 | photoluminescence quantum yield (in ClCCl): 0.94

Compound: CC[N+]1(CC)CN2C(=N1)C(C(=O)O)=Cc1cc(SC)ccc12
photoluminescence quantum yield (in O): 0.308

photoluminescence quantum yield (in CO): 0.24
Compound: Oc1cccc(-c2nc(-c3ccccc3)c(-c3ccccc3)[nH]2)c1

photoluminescence quantum yield (in CCO): 0.2
Compound: CCOC(=O)c1cc(C(=O)OCC)c2cccc(OCc3ccccc3)c2n1

Compound: CC1=CC(/C=C/c2ccccc2)=[N+]2C1=C(c1ccccc1)c1c(C)cc(/C=C/c3ccccc3)n1[B-]2(F)F
photoluminescence quantum yield (in Cc1ccccc1): 0.59

Compound: N#Cc1c(C#N)c(-n2c3ccccc3c3ccccc32)c(-n2c3ccccc3c3ccccc32)c(-n2c3ccccc3c3ccccc32)c1-n1c2ccccc2c2ccccc21
photoluminescence quantum yield (in Cc1ccccc1): 0.744

photoluminescence quantum yield (in ClCCl): 0.38
Compound: COc1cc(C)c(-c2cc(-c3c(C)cc(OC)cc3C)c3ccc4c(-c5c(C)cc(OC)cc5C)cc(-c5c(C)cc(OC)cc5C)c5ccc2c3c54)c(C)c1

photoluminescence quantum yield (in C1CCOC1): 0.38
Compound: c1ccc(/C(=C(\c2ccccc2)c2cc(-c3ccccc3)ccc2-c2ccc(-c3ccccc3)cc2)c2cc(-c3ccccc3)ccc2-c2ccc(-c3ccccc3)cc2)cc1

photoluminescence quantum yield (in ClCCl): 0.121
Compound: CCCCCCOc1cc(N(CC)CC)ccc1/C=C/C(=C(C#N)C#N)c1ccc2c(c1)c1ccccc1n2CC

photoluminescence quantum yield (in c1cc(-c2cccc(-n3c4ccccc4c4ccccc43)c2)cc(-n2c3ccccc3c3ccccc32)c1): 0.42
Compound: CC1(C)c2ccccc2N(c2ccc3c(c2)c2ccccc2c2nc4ccccc4nc32)c2ccccc21

photoluminescence quantum yield (in ClCCl): 0.1
Compound: COc1ccc(C2=C3C(/C=C/c4cc(OC)c(OC)c(OC)c4)=C(C=O)C(C)=[N+]3[B-](F)(F)n3c(/C=C/c4cc(OC)c(OC)c(OC)c4)c(C=O)c(C=Cc4cc(OC)c(OC)c(OC)c4)c32)cc1

photoluminescence quantum yield (in ClCCl): 0.16
Compound: CC(C)(C)c1ccc(-c2c3c(c(-c4ccccc4)c4cc5ccccc5cc24)Cc2c(c(-c4ccccc4)c4cc5ccccc5cc4c2-c2ccc(C(C)(C)C)cc2)C3)cc1

Compound: CCN1C(=O)C(C2C(=O)c3c4ccccc4cc4cc5ccccc5c2c34)SC1=S (stereo not given)
photoluminescence quantum yield (in C1CCOC1): 0.258 | photoluminescence quantum yield (in CC#N): 0.135 | photoluminescence quantum yield (in CCCCCC): 0.33 | photoluminescence quantum yield (in Cc1ccccc1): 0.339 | photoluminescence quantum yield (in ClCCl): 0.229
